We go through two compounds from patent EP0542355A1, “Amorphous (Quinolin-2-ylmethoxy)indoles as leukotriene antagonists” (MERCK FROSST CANADA INC., priority 1991, dated 1993).

One data set is described as follows: Aqueous solubility. Type of data set: physicochemical. The procedure: Solubility was measured by stirring […] in water (10 mL) of amorphous L-708 at room temperature. At 48 hrs. 1 mL of the suspension was drawn and centrifuged. The supernatant was diluted and content of amorphous L-708 was measured by both U.V. spectrophotometry and by HPLC. This gave a concentration of 55 mg/mL.

The nature of another data set: Bioavailability. Type of data set: in vivo.
The nature of data set [1]: Stability of the solid on storage, followed by water solubility. As to conditions: solid stored three months at 30°C and 60°C at ambient humidity and at 30°C/79% relative humidity. Type of data set: physicochemical. As to the method: (§1) No change in water solubility has been observed even when stored for three months at 30°C and 60°C at ambient humidity and at 30°C/79% relative humidity.

Data set [2] is described as follows: Stability to chemical decomposition. The conditions noted are these: in the solid form and in aqueous solution. The data set is classed as physicochemical. As to the method:
as §1

Data set [3] is described as follows: Stability of saturated aqueous solutions against precipitation of the crystalline form. Type of data set: physicochemical. The conditions noted are these: do not readily precipitate the crystalline form even when seeded with the crystalline allotrope.

Where “and” joins values, the source holds several entries; their conditions need not be identical. Equal values may be shown once. Where a name gives a salt, the structure may show the parent alone. Read-outs that look alike come from different tables or passages of the source.

`CC(C)(C)Sc1c(CC(C)(C)C(=O)O)n(Cc2ccc(Cl)cc2)c2ccc(OCc3ccc4ccccc4n3)cc12` [L-708 Na⁺ salt, Crystalline 3-[N-(p-chlorobenzyl)-3-(t-butylthio)-5-(quinolin-2-ylmethoxy)indol-2-yl]-2.2-dimethylpropanoic acid, sodium salt, reference compound]: in “Aqueous solubility” (water, crystalline sodium salt, read-out: aqueous solubility), the solubility was in the range of 0.005 to 0.03 mg/mL. For the same compound, in the data set “Bioavailability” (oral), the oral bioavailability result is recorded as “low oral bioavailability”.
On to `CC(C)(C)Sc1c(CC(C)(C)C(=O)O)n(Cc2ccc(Cl)cc2)c2ccc(OCc3ccc4ccccc4n3)cc12` [amorphous L-708, Amorphous 3-[N-(p-chlorobenzyl)-3-(t-butylthio)-5-(quinolin-2-ylmethoxy)indol-2-yl]-2,2-dimethylpropanoic acid, sodium salt], for which the solubility was 55 mg/mL in “Aqueous solubility” (de-ionized water, in de-ionized water at 25°C, read-out: solubility); ≥ 3000 µg/mL and ≥ 5000 µM in the data set “Aqueous solubility” (water, not tested higher, read-out: Solubility in water). In the data set “Aqueous solubility” (water, 100 mg/mL stirred in water (10 mL) at room temperature, 48 hrs, U.V. spectrophotometry and HPLC, read-out: Solubility (concentration in supernatant)), the solubility at 48 h worked out at 55 mg/mL. For the same compound, the “change in water solubility on storage” value in data set [1] is “No change”. For the same compound, the bioavailability result in the data set “Bioavailability” (compared with L-708 Na⁺ salt) was “much more bioavailable than L-708 Na⁺ salt”. Also, the “stability to chemical decomposition” value in data set [2] is “highly stable to chemical decomposition”. Further, in data set [3], the “stability of saturated aqueous solutions” value is “highly stable”.
